Read-outs that look alike come from different tables or passages of the source. Marks after values point to notes of the source that are not given here.
Experiments:
[1] = Urinary excretion of phenylbutyrate, benzoate and their conjugated products; nitrogen conjugation in 24 h urine; details: for Total N excreted as conjugated products, % test meal: fraction of nitrogen content of test meal; for efficacy of conjugation (percent of dose recovered as conjugate in 24 h urine): given as sole treatments, highest dose; for Conjugation efficacy: nitrogen conjugated divided by amount of drug provided
Description: (§1) This was a randomized, three-arm, crossover study. Each arm was completed over a four-day period with a washout period of at least 7 days between any two of the treatment arms (FIG. 1). […] The treatments were designed to provide isomolar amount of drugs and the total daily dose was administered in three equally divided doses.
(§2) On day 1 of study arm 1, detailed medical history review and physical examination were performed. Complete blood count, comprehensive metabolic panel, plasma ammonia, and urinalysis (safety laboratory measurements) were performed. Urine pregnancy test was performed on all females. Meals prepared at the CNRC to provide 0.8 g·kg^−1·day^−1 protein and 32 kcal·kg^−1·day^−1 were given for next three days. The standardized protein and caloric intake allowed for comparison of nitrogen excretion among the three arms. Subjects were randomized to a predetermined treatment sequence and the first dose of the appropriate medication was administered under supervision. Subjects took the study medication with meals for three days (08:00 breakfast; 13:00 lunch; 19:00 dinner) (FIG. 1). […] On day 3, subjects omitted the 19:00 dose of the medication to prevent interference with the analysis on day 4 from metabolite conjugates from the previous day. On day 4, fasting blood sample was obtained for the determination of plasma amino acids and urea concentrations, background isotopic enrichments, basic metabolic profile, complete blood count, and plasma concentrations of phenylbutyrate, benzoate, PAGN, and HA. Urine was collected for measurements of urea, phenylbutyrate, benzoate, PAGN, and HA. At 0 hours, the test meal containing half of the daily dietary allowance of protein (0.4 g·kg^−1) was provided by a commercial liquid meal replacement (Ensure Plus, Abbott, Abbot Park, Ill.) and ^15N labeled spirulina (40 mg·kg^−1; ISOTEC, Miamisburg, Ohio). […] A dose of 40 mg·kg^−1 labeled ^15N-labeled spirulina was estimated to result in dietary enrichment of ˜5 mole percent excess. The morning meal, which was ingested in ˜10 minutes, was followed by a dose of study medication and an intravenous bolus dose of urea tracer, [^13C^18O]urea (6 mmol/subject; ISOTEC, Miamisburg, Ohio). Blood samples to determine concentrations and isotopic enrichments of the drugs and their conjugated products, as well as amino acids and urea were collected every 30 minutes for the first four hours and then hourly between hours 4 and 8 (FIG. 1). Urine was collected in four 2-hour batched periods during the eight hour admission period. […] The procedures for the study arms 2 and 3 were identical to those performed in arm 1.
(§3) Plasma and urinary drugs and their conjugated products as well as urea and amino acids were determined by mass spectrometry and quantitated based on the dilution of labeled internal standards. Total urinary nitrogen was determined using the micro-Kjeldahl method.
Plasma and urinary phenylbutyrate, PAA, and benzoate were determined as their pentafluorobenzyl derivatives by NCI-GC-MS; . [^2H5] […] 4-phenylbutyric acids (C/D/N Isotopes, Quebec, Canada) were used as internal standards. Underivatized PAGN and HA were measured by HESI LC-MS/MS; [^2H5] PAGN and [^2H5] HA (C/D/N Isotopes, Quebec, Canada) were used as internal standards.
Accordingly, these background values were subtracted from the values obtained during the treatment with phenylbutyrate and benzoate. The total amount of nitrogen conjugated was expressed as fraction of the test meal, by dividing by the total nitrogen content of the test meal. The conjugation of dietary nitrogen was calculated as the amount of ^15N conjugated by multiplying the total amount of nitrogen conjugated by the respective ^15N enrichment. For PAGN, the labeling of the amino and amido group were considered.

[2] = Urea metabolism and total urinary nitrogen excretion; assay type: in vivo, human; parameters: Urinary urea-^15N: unit not given here; details: for Urinary N: N intake 9.81 g/d; for Urea production: [^13C^18O]urea tracer, day 4; for ^15N as % of test meal: urinary urea ^15N
Description: as §1, §2, §3
Plasma amino acids concentrations and enrichments were determined by HESI LC-MS/MS. A cell free U-[^13C^15N] amino acid mix was used as internal standard. Total urinary nitrogen was determined using the micro-Kjeldahl method.

[3] = day 4
[4] = plasma
Description: On day 1 of study arm 1, detailed medical history review and physical examination were performed. Complete blood count, comprehensive metabolic panel, plasma ammonia, and urinalysis (safety laboratory measurements) were performed. Urine pregnancy test was performed on all females. Meals prepared at the CNRC to provide 0.8 g·kg^−1·day^−1 protein and 32 kcal·kg^−1·day^−1 were given for next three days. The standardized protein and caloric intake allowed for comparison of nitrogen excretion among the three arms. Subjects were randomized to a predetermined treatment sequence and the first dose of the appropriate medication was administered under supervision. Subjects took the study medication with meals for three days (08:00 breakfast; 13:00 lunch; 19:00 dinner) (FIG. 1). […] On day 3, subjects omitted the 19:00 dose of the medication to prevent interference with the analysis on day 4 from metabolite conjugates from the previous day. On day 4, fasting blood sample was obtained for the determination of plasma amino acids and urea concentrations, background isotopic enrichments, basic metabolic profile, complete blood count, and plasma concentrations of phenylbutyrate, benzoate, PAGN, and HA. […]
Plasma amino acids concentrations and enrichments were determined by HESI LC-MS/MS. […] Total urinary nitrogen was determined using the micro-Kjeldahl method.

clinical = details: human, in vivo
[5] = 24 h urine, ^15N labeled test meal
[6] = 24 h urine, background subtracted

O=C([O-])c1ccccc1.[Na+] [NaBz, sodium benzoate]
Urinary excretion of Bz ([1]; 24 h urine): 6.5 μmol/24 h
Urinary excretion of Bz, % of dose ([1]; 24 h urine): 0.02 % of dose
urinary excretion of unconjugated drug ([1]; 24 h urine): negligible
Total 15N in conjugated products, % test meal [1, 5]: 1.51 % test meal
Urinary HA (Conjugated ^15N Products) [1, 5]: 253.9 μmol/24 h
Urinary excretion of HA [1, 6]: 16.4 mmol/24 h
Total N excreted as conjugated products, % test meal ([1]; 24 h urine): 4.65 ^b % test meal
Urinary excretion of HA, % of dose ([1]; 24 h urine, percent of benzoate dose recovered as HA): 66.1 % of dose
efficacy of conjugation (percent of dose recovered as conjugate in 24 h urine) [1]: ~65%
Conjugation efficacy ([1]; gram basis): 64.2^b mg N/g drug
Conjugation efficacy ([1]; molar basis): 9.25^b mg N/mmol drug
% N excreted from daily intake ([2]; 24 h urine): 65.1%
Urea N as a % total urinary N ([2]; 24 h urine): 65.1%
Urinary Urea N ([2]; 24 h urine): 4.20 g/day
Urinary N ([2]; 24 h urine): 6.38 g/day
Urea production [2]: 197 µmol/kg/h
^15N as % of test meal ([2]; 24 h urine): 14.7%
Bz AUC0-8 ([3]; plasma benzoate, 0 to 8 h): 301.7 µmol/L
Bz Tmax ([3]; plasma benzoate): 1.6^b h
Bz Tmax ([3]; plasma benzoate, listed as benzoate): ~1.5 h
Benzoate Cmax and AUC0-8, NaBz arm relative to MIX arm ([3]; plasma): 4-5 times
Cmax ([3]; read-out: Bz Cmax, plasma benzoate): 217 µM

O=C(O)Cc1ccccc1 [PAA, phenylacetate]
urinary excretion of unconjugated drug ([1]; 24 h urine): negligible

sodium phenylbutyrate [NaPB]
Total N excreted as conjugated products ([1]; 24 h urine): 30.7 mmol/24 h
Urinary excretion of PAA ([1]; 24 h urine): 40.3 μmol/24 h
Urinary excretion of PAA, % of dose ([1]; 24 h urine): 0.16 % of dose
Urinary excretion of PB ([1]; 24 h urine): 32.3 μmol/24 h
Urinary excretion of PB, % of dose ([1]; 24 h urine): 0.13 % of dose
urinary excretion of unconjugated drug ([1]; 24 h urine): negligible
Total 15N in conjugated products, % test meal [1, 5]: 1.62 % test meal
Urinary 2&5-[^15N] PAGN [1, 5]: 38.9 μmol/24 h
Urinary 2-[^15N] PAGN [1, 5]: 43.9 μmol/24 h
Urinary excretion of PAGN [1, 6]: 15.3 mmol/24 h
Total N excreted as conjugated products, % test meal ([1]; 24 h urine): 8.74 ^a % test meal
Urinary excretion of PAGN, % of dose ([1]; 24 h urine, percent of phenylbutyrate dose recovered as PAGN): 61.5 % of dose
efficacy of conjugation (percent of dose recovered as conjugate in 24 h urine) [1]: ~65%
Conjugation efficacy ([1]; gram basis): 92.5^ab mg N/g drug
Conjugation efficacy ([1]; molar basis): 17.2^a mg N/mmol drug
% N excreted from daily intake ([2]; 24 h urine): 65.6%
Urea N as a % total urinary N ([2]; 24 h urine): 63.6%
Urinary Urea N ([2]; 24 h urine): 4.16 g/day
Urinary N ([2]; 24 h urine): 6.47 g/day
Urinary urea-^15N [2, 5]: 37.0
Urea production [2]: 192 µmol/kg/h
^15N as % of test meal ([2]; 24 h urine): 15.2%
leucine AUC0-8 ([4]; response to phenylbutyrate inclusion in the treatment, P=0.032): reduction
tryptophan AUC0-8 ([4]; response to phenylbutyrate, P<0.001): reduction

O=C(O)CNC(=O)c1ccccc1 [hippuric acid]
Tmax (clinical): 2.2 h

Reference: US11819483B2, “Combination therapy to treat urea cycle disorders” (Baylor College of Medicine, priority 2017, dated 2023)
